In patent US6288110A, “Pharmaceutical compositions comprising disulfiram” (Yeda Research and Development Co Ltd., priority 1998, dated 2001):
“Also recorded” adds a separate entry of the source. Where two headings read alike, the source gives them in different places.

Legend:
[1] = system: BSMC; test: Cell rounding, BSMC; assay type: cell-based, bovine; conditions: 5 μM
[2] = system: aldehyde dehydrogenases; conditions: cited from earlier work
[3] = system: C6 rat glioma cells; test: DNA synthesis (3H-thymidine incorporation) in C6 rat glioma cells; assay type: cell-based; conditions: for IC (maximal): Rattus norvegicus
Method: C6 rat glioma cells were routinely cultured in DMEM supplemented with 5% FCS (Biological Industries, Israel), GPS (100 U/ml penicillin, […] streptomycin (Biological Industries, Israel) and 2 mM glutamine (Biolab Ltd. Israel)) and 125 μg/ml fungizone (Biolab Ltd, Israel).
(§1) C6 rat glioma cells were plated in 96-well plates (Nunc, Denmark) (5000 cells per well) in DMEM with 5% FCS. After 6 hours the cells were rinsed and incubated for 48 hours in serum free medium. 5% FCS or growth factors were then added to the cells for 24 hours (triplicates). ^3 H-methyl-thymidine (5μCi/ml) (Rotem Ind. Ltd., Israel) was added to the cells for the last 14 hours. The cells were rinsed with 100 μl methanol for 10 minutes, followed by 200 μl 5% trichloroacetic acid, and then rinsed and lysed with 150 μl 0.3M NaOH. Radioactive thymidine incorporated into the DNA was determined for 1 min with 3 ml scintillation liquid (ULTIMA GOLD Packard) in a β-counter. DNA synthesis assays were performed in triplicates.
Disulfiram was prepared in 0.1 mM stock solutions in DMSO. Control samples were incubated with the appropriate concentration of DMSO. Inhibition was calculated as percentage of DNA synthesis of control.
To determine whether disulfiram acts directly on endothelial cells rather than on accessory cells such as macrophages and mast cells that can be responsible for the development of an angiogenic response in vivo, the effect of the drug on the growth of BCE cells was examined in vitro as described in section (c) of "Materials and Methods" above. DNA synthesis in BCE cells was measured in presence of increasing concentrations of disulfiram incubated for 24 hours with the cells. […] Maximal inhibitory activity (80%) for BSMC was at 0.5-1 μM disulfiram, while maximal inhibitory activity for C6 glioma cells or BALB/MK keratinocytes was at concentrations 10 fold higher (2-3 μM) than those for endothelial cells (0.2-0.5 μM).
To examine the time course of the effect of disulfiram and whether the effect was reversible, cells were incubated with disulfiram for various periods of time (1, 2, 4 and 24 hours), then washed away and DNA synthesis was determined. One to 4 hours of exposure to disulfiram were enough to induce maximal inhibitory effect at concentrations ranging from 0.5 μM for BCE cells (FIG. 3A) to 5 μM for BALB/MK keratinocytes (FIG. 3C) and C6 glioma cells (FIG. 3D). […] BSMC were less sensitive as far as time course is concerned when incubated with 1 μM disulfiram. Following 4 hours of incubation with 1 μM disulfiram, DNA synthesis inhibition in BSMC reached only 50% (FIG. 3B). […]

[4] = system: all cell types examined; test: DNA synthesis, all cell types examined, higher concentrations; assay type: cell-based; conditions: >10 μM, all cell types examined (not shown)
Method: as §1
Bovine capillary endothelial cells (BCE) and bovine aortic BSMC were plated in 24-well plates (6000 cells per well) in 500 μl DMEM medium supplemented with 10% Colorado calf serum (CCS) (GIBCO, USA) and GPS. After 24 hours, medium was changed to starvation medium (2% CCS, 0.5% BSA, GPS) for 24 hours. ^3 H-methyl-thymidine (5 μCi/ml) was added for the last 6 hours. DNA synthesis assays were performed as described above, in triplicates. […]
(§2) Disulfiram was prepared in 0.1 mM stock solutions in DMSO. […] Inhibition was calculated as percentage of DNA synthesis of control.

[5] = ingested or injected intraperitoneally; cited from earlier work
[6] = system: C6 rat glioma cells; test: TUNEL assay for apoptosis, C6 rat glioma cells; assay type: cell-based; conditions: 5 μM, 6 hours
Method: (§3) Cells were cultured on microscope slides for 48 hours in presence of growth media as described above, until reaching 40-50% confluency. Disulfiram was then added to the cells for 6 hours or for 20 hours in the case of BALB/MK keratinocytes, fixed with 4% paraformaldehyde and washed three times with PBS. Apoptosis was analyzed by the in situ TUNEL staining carried out as described (Wride, 1994). Briefly, microscope slides were incubated for 15 min in 2×SSC buffer at 60° C., washed in DDW and incubated with 20 μg/ml proteinase K (Boehringer Mannheim) for 15 min at room temperature. After a wash with DDW, endogenous peroxidases were inactivated by incubating the slides with 2% H2 O2 in PBST (PBS with 0.05% Tween 20) for 10 min at room temperature. Slides were then incubated in TdT buffer (Boehringer Mannheim) for 5 min at room temperature, and a reaction mixture containing 5×TdT buffer and 1 μl biotin-21-dUTP (Clontech, 1 mM stock) and 8 units of the TdT enzyme (Boehringer Mannheim) in total volume of 50 μl was subsequently added. The reactions were carried out at 37° C. for 1.5 hr in a humid chamber. The slides were washed in 2×SSC, DDW and finally with PBS and covered with 10% skim milk in PBST for 15 min. […]

[7] = system: dopamine-β-hydroxylases; conditions: cited from earlier work
[8] = system: bovine aortic vascular smooth muscle cells (BSMC); test: DNA synthesis (3H-thymidine incorporation) in BSMC; assay type: cell-based
Method: Bovine aortic vascular smooth muscle cells (BSMC) were cultured in low glucose DMEM (1 g/liter) supplemented with 10% FCS (HyClone, Logan, Utah) and GPS.
Bovine capillary endothelial cells (BCE) and bovine aortic BSMC were plated in 24-well plates (6000 cells per well) in 500 μl DMEM medium supplemented with 10% Colorado calf serum (CCS) (GIBCO, USA) and GPS. After 24 hours, medium was changed to starvation medium (2% CCS, 0.5% BSA, GPS) for 24 hours. ^3 H-methyl-thymidine (5 μCi/ml) was added for the last 6 hours. DNA synthesis assays were performed as described above, in triplicates. DNA synthesis assays in BALB/MK keratinocytes were performed as previously described (Marikovsky, 1995).-DNA synthesis assays were performed in triplicates.
as §2
To determine whether disulfiram acts directly on endothelial cells rather than on accessory cells such as macrophages and mast cells that can be responsible for the development of an angiogenic response in vivo, the effect of the drug on the growth of BCE cells was examined in vitro as described in section (c) of "Materials and Methods" above. DNA synthesis in BCE cells was measured in presence of increasing concentrations of disulfiram incubated for 24 hours with the cells. […]

[9] = system: ifosfamide- and cyclophosphamide-induced urotoxicity; conditions: administered simultaneously with ifosfamide or cyclophosphamide, mice; cited from earlier work
[10] = system: interleukin-1; conditions: U.S. Pat. No. 4,870,101; cited from earlier work
[11] = system: bladder cancer; conditions: N-butyl-N-(4-hydroxybutyl)nitrosamine or N-butyl-N-(3-carboxypropyl)nitrosamine, rats; cited from earlier work
[12] = system: BSMC; test: TUNEL assay for apoptosis, BSMC; assay type: cell-based, bovine; conditions: 1 μM, 6 hours
Method: as §3

CCN(CC)C(=S)SSC(=S)N(CC)CC [disulfiram, Bis(diethylthiocarbamoyl) disulfide]
cell rounding [1]: did not change their shape to the rounded form | inhibition of aldehyde dehydrogenases [2]: inhibit | maximal inhibitory concentration relative to endothelial cells, fold higher ([3]; C6 glioma vs endothelial cells (0.2-0.5 μM)): 10 fold | persistence of inhibitory effect after short exposure ([3]; C6 glioma, 24 hours following short exposure): inhibitory effect seemed to be maintained | IC (maximal) ([3]; C6 glioma cells, read-out: concentration of maximal inhibitory activity (DNA synthesis)): 2 to 3 µM | IC (maximal) ([3]; C6 glioma, 1 to 4 hours of exposure, washed, read-out: concentration inducing maximal inhibitory effect on DNA synthesis, short exposure): 5 µM | inhibition at higher concentrations [4]: became less inhibitory | distribution throughout the body [5]: extensively distributed throughout the body including the brain | apoptosis by TUNEL method [6]: not labeled; also recorded: did not induce | inhibition of dopamine-β-hydroxylases [7]: inhibit | maximal inhibitory activity (DNA synthesis) ([8]; 0.5-1 μM disulfiram): 80% | inhibition at 1 µM ([8]; Bos taurus, 1 μM, 4 hours of incubation): 50% | protection against urotoxicity [9]: protect mice | inhibition of interleukin-1 release [10]: effective to inhibit the release of interleukin-1 | interference with induction of bladder cancer [11]: interfere with induction of cancer | apoptosis by TUNEL method [12]: not labeled; also recorded: did not induce
